Measurements from patent US20240317721A1, “PYRAZOLYL DERIVATIVES AS INHIBITORS OF THE KRAS MUTANT PROTEIN” (NOVARTIS AG, priority 2021, published 2024).
pIC50: −log10 of the molar value.

Molecular target: KRasG12C (M1-K169, biotinylated on the N-terminus) (Homo sapiens (Human), UniProt P01116, G12C)
Assay: Covalent competition assay: scintillation proximity assay (SPA) quantifying covalent modification of KRASG12C
Type: binding
Conditions: competition with radiolabeled covalent probe (Compound B/Compound A), 2 hours incubation, 10 nM KRasG12C
Summary of the method: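 Test compounds compete with a radiolabeled covalent probe for modification of N-terminally biotinylated KRasG12C(M1-K169):GDP, final 10 nM protein, 25 nM radio-ligand, 475 nM unlabelled ligand, 2 h with agitation in 20 mM Tris-HCl pH 7.5, 150 mM NaCl, 0.1 mM MgCl2, 0.01% Tween-20.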

Row | Compound | pIC50
1 | C=CC(=O)N1CC2(CC(n3nc(N4CCN(C(=O)COC)CC45CCC5)c(-c4c(Cl)c(C)cc5[nH]ncc45)c3C)C2)C1 (single isomer, unassigned) [Example 123a, 1-(6-(4-(5-chloro-6-methyl-1H-indazol-4-yl)-3-(8-(2-methoxyacetyl)-5,8-diazaspiro[3.5]nonan-5-yl)-5-methyl-1H-pyrazol-1-yl)-2-azaspiro[3.3]heptan-2-yl)prop-2-en-1-one] | < 5.30
2 | C=CC(=O)N1CC2(CC(n3nc(N4CCN(C(=O)COC)CC45CCC5)c(-c4c(Cl)c(C)cc5[nH]ncc45)c3C)C2)C1 (single isomer, unassigned) [Example 123b, 1-(6-(4-(5-chloro-6-methyl-1H-indazol-4-yl)-3-(8-(2-methoxyacetyl)-5,8-diazaspiro[3.5]nonan-5-yl)-5-methyl-1H-pyrazol-1-yl)-2-azaspiro[3.3]heptan-2-yl)prop-2-en-1-one] | 7.68
3 | C=CC(=O)N1CC2(CC(n3nc(N4CCN(C(=O)[C@@H]5CCCO5)CC45CCC5)c(-c4c(Cl)c(C)cc5[nH]ncc45)c3C)C2)C1 (single isomer, unassigned) [Example 124a] | < 5.30
4 | C=CC(=O)N1CC2(CC(n3nc(N4CCN(C(=O)[C@@H]5CCCO5)CC45CCC5)c(-c4c(Cl)c(C)cc5[nH]ncc45)c3C)C2)C1 (single isomer, unassigned) [Example 124b] | 7.70
5 | C=CC(=O)N1CC2(CC(n3nc(N4CCN(C(=O)OC)CC4(C)C)c(-c4c(Cl)c(C)cc5[nH]ncc45)c3C)C2)C1 (single isomer, unassigned) [Example 125a, methyl 4-(1-(2-acryloyl-2-azaspiro[3.3]heptan-6-yl)-4-(5-chloro-6-methyl-1H-indazol-4-yl)-5-methyl-1H-pyrazol-3-yl)-3,3-dimethylpiperazine-1-carboxylate] | 5.66
6 | C=CC(=O)N1CC2(CC(n3nc(N4CCN(C(=O)OC)CC4(C)C)c(-c4c(Cl)c(C)cc5[nH]ncc45)c3C)C2)C1 (single isomer, unassigned) [Example 125b, methyl 4-(1-(2-acryloyl-2-azaspiro[3.3]heptan-6-yl)-4-(5-chloro-6-methyl-1H-indazol-4-yl)-5-methyl-1H-pyrazol-3-yl)-3,3-dimethylpiperazine-1-carboxylate] | 7.46
7 | C=CC(=O)N1CC2(CC(n3nc(N4CCN(S(C)(=O)=O)CC4(C)C)c(-c4c(Cl)c(C)cc5[nH]ncc45)c3C)C2)C1 (single isomer, unassigned) [Example 126a, 1-(6-(4-(5-chloro-6-methyl-1H-indazol-4-yl)-3-(2,2-dimethyl-4-(methylsulfonyl)piperazin-1-yl)-5-methyl-1H-pyrazol-1-yl)-2-azaspiro[3.3]heptan-2-yl)prop-2-en-1-one] | < 4.30
8 | C=CC(=O)N1CC2(CC(n3nc(N4CCN(S(C)(=O)=O)CC4(C)C)c(-c4c(Cl)c(C)cc5[nH]ncc45)c3C)C2)C1 (single isomer, unassigned) [Example 126b, 1-(6-(4-(5-chloro-6-methyl-1H-indazol-4-yl)-3-(2,2-dimethyl-4-(methylsulfonyl)piperazin-1-yl)-5-methyl-1H-pyrazol-1-yl)-2-azaspiro[3.3]heptan-2-yl)prop-2-en-1-one] | 6.77
9 | C=CC(=O)N1CC2(CC(n3nc(N4CCN(C(=O)C5CC5)CC4(C)C)c(-c4c(Cl)c(C)cc5[nH]ncc45)c3C)C2)C1 (single isomer, unassigned) [Example 127a, 1-(6-(4-(5-chloro-6-methyl-1H-indazol-4-yl)-3-(4-(cyclopropanecarbonyl)-2,2-dimethylpiperazin-1-yl)-5-methyl-1H-pyrazol-1-yl)-2-azaspiro[3.3]heptan-2-yl)prop-2-en-1-one] | 4.60
10 | C=CC(=O)N1CC2(CC(n3nc(N4CCN(C(=O)C5CC5)CC4(C)C)c(-c4c(Cl)c(C)cc5[nH]ncc45)c3C)C2)C1 (single isomer, unassigned) [Example 127b, 1-(6-(4-(5-chloro-6-methyl-1H-indazol-4-yl)-3-(4-(cyclopropanecarbonyl)-2,2-dimethylpiperazin-1-yl)-5-methyl-1H-pyrazol-1-yl)-2-azaspiro[3.3]heptan-2-yl)prop-2-en-1-one] | 7.70
11 | C=CC(=O)N1CC2(CC(n3nc(N4CCN(C(=O)C(F)F)CC4(C)C)c(-c4c(Cl)c(C)cc5[nH]ncc45)c3C)C2)C1 (single isomer, unassigned) [Example 128a, 1-(6-(4-(5-chloro-6-methyl-1H-indazol-4-yl)-3-(4-(2,2-difluoroacetyl)-2,2-dimethylpiperazin-1-yl)-5-methyl-1H-pyrazol-1-yl)-2-azaspiro[3.3]heptan-2-yl)prop-2-en-1-one] | < 4.30
12 | C=CC(=O)N1CC2(CC(n3nc(N4CCN(C(=O)C(F)F)CC4(C)C)c(-c4c(Cl)c(C)cc5[nH]ncc45)c3C)C2)C1 (single isomer, unassigned) [Example 128b, 1-(6-(4-(5-chloro-6-methyl-1H-indazol-4-yl)-3-(4-(2,2-difluoroacetyl)-2,2-dimethylpiperazin-1-yl)-5-methyl-1H-pyrazol-1-yl)-2-azaspiro[3.3]heptan-2-yl)prop-2-en-1-one] | 7.27
13 | C=CC(=O)N1CC2(CC(n3nc(N4CCN(C(=O)N(C)C)CC4(C)C)c(-c4c(Cl)c(C)cc5[nH]ncc45)c3C)C2)C1 (single isomer, unassigned) [Example 129a, 4-(1-(2-acryloyl-2-azaspiro[3.3]heptan-6-yl)-4-(5-chloro-6-methyl-1H-indazol-4-yl)-5-methyl-1H-pyrazol-3-yl)-N,N,3,3-tetramethylpiperazine-1-carboxamide] | 7.49
14 | C=CC(=O)N1CC2(CC(n3nc(N4CCN(C(=O)N(C)C)CC4(C)C)c(-c4c(Cl)c(C)cc5[nH]ncc45)c3C)C2)C1 (single isomer, unassigned) [Example 129b, 4-(1-(2-acryloyl-2-azaspiro[3.3]heptan-6-yl)-4-(5-chloro-6-methyl-1H-indazol-4-yl)-5-methyl-1H-pyrazol-3-yl)-N,N,3,3-tetramethylpiperazine-1-carboxamide] | 5.92
15 | C=CC(=O)N1CC2(CC(n3nc(N4CCN(C5CCOCC5)CC45CCC5)c(-c4c(Cl)c(C)cc5[nH]ncc45)c3C)C2)C1 (single isomer, unassigned) [Example 130a, 1-(6-(4-(5-Chloro-6-methyl-1H-indazol-4-yl)-5-methyl-3-(8-(tetrahydro-2H-pyran-4-yl)-5,8-diazaspiro[3.5]nonan-5-yl)-1H-pyrazol-1-yl)-2-azaspiro[3.3]heptan-2-yl)prop-2-en-1-one] | < 5.30
16 | C=CC(=O)N1CC2(CC(n3nc(N4CCN(C5CCOCC5)CC45CCC5)c(-c4c(Cl)c(C)cc5[nH]ncc45)c3C)C2)C1 (single isomer, unassigned) [Example 130b, 1-(6-(4-(5-Chloro-6-methyl-1H-indazol-4-yl)-5-methyl-3-(8-(tetrahydro-2H-pyran-4-yl)-5,8-diazaspiro[3.5]nonan-5-yl)-1H-pyrazol-1-yl)-2-azaspiro[3.3]heptan-2-yl)prop-2-en-1-one] | 7.49
17 | C=CC(=O)N1CC2(CC(n3nc(N4CCN(C(C)C)CC45CCC5)c(-c4c(Cl)c(C)cc5[nH]ncc45)c3C)C2)C1 (single isomer, unassigned) [Example 131a, 1-(6-(4-(5-chloro-6-methyl-1H-indazol-4-yl)-3-(8-isopropyl-5,8-diazaspiro[3.5]nonan-5-yl)-5-methyl-1H-pyrazol-1-yl)-2-azaspiro[3.3]heptan-2-yl)prop-2-en-1-one] | < 5.30
18 | C=CC(=O)N1CC2(CC(n3nc(N4CCN(C(C)C)CC45CCC5)c(-c4c(Cl)c(C)cc5[nH]ncc45)c3C)C2)C1 (single isomer, unassigned) [Example 131b, 1-(6-(4-(5-chloro-6-methyl-1H-indazol-4-yl)-3-(8-isopropyl-5,8-diazaspiro[3.5]nonan-5-yl)-5-methyl-1H-pyrazol-1-yl)-2-azaspiro[3.3]heptan-2-yl)prop-2-en-1-one] | 7.12
19 | C=CC(=O)N1CC2(CC(n3nc(N4CCN(C5CCOC5)CC45CCC5)c(-c4c(Cl)c(C)cc5[nH]ncc45)c3C)C2)C1 (single isomer, unassigned) [Example 132a, 1-(6-(4-(5-chloro-6-methyl-1H-indazol-4-yl)-5-methyl-3-(8-(tetrahydrofuran-3-yl)-5,8-diazaspiro[3.5]nonan-5-yl)-1H-pyrazol-1-yl)-2-azaspiro[3.3]heptan-2-yl)prop-2-en-1-one] | 6.16
20 | C=CC(=O)N1CC2(CC(n3nc(N4CCN(C5CCOC5)CC45CCC5)c(-c4c(Cl)c(C)cc5[nH]ncc45)c3C)C2)C1 (single isomer, unassigned) [Example 132b, 1-(6-(4-(5-chloro-6-methyl-1H-indazol-4-yl)-5-methyl-3-(8-(tetrahydrofuran-3-yl)-5,8-diazaspiro[3.5]nonan-5-yl)-1H-pyrazol-1-yl)-2-azaspiro[3.3]heptan-2-yl)prop-2-en-1-one] | 5.35
21 | C=CC(=O)N1CC2(CC(n3nc(N4CCN(C5CCOC5)CC45CCC5)c(-c4c(Cl)c(C)cc5[nH]ncc45)c3C)C2)C1 (single isomer, unassigned) [Example 132c, 1-(6-(4-(5-chloro-6-methyl-1H-indazol-4-yl)-5-methyl-3-(8-(tetrahydrofuran-3-yl)-5,8-diazaspiro[3.5]nonan-5-yl)-1H-pyrazol-1-yl)-2-azaspiro[3.3]heptan-2-yl)prop-2-en-1-one] | 7.62
22 | C=CC(=O)N1CC2(CC(n3nc(N4CCN(C5CCOC5)CC45CCC5)c(-c4c(Cl)c(C)cc5[nH]ncc45)c3C)C2)C1 (single isomer, unassigned) [Example 132d, 1-(6-(4-(5-chloro-6-methyl-1H-indazol-4-yl)-5-methyl-3-(8-(tetrahydrofuran-3-yl)-5,8-diazaspiro[3.5]nonan-5-yl)-1H-pyrazol-1-yl)-2-azaspiro[3.3]heptan-2-yl)prop-2-en-1-one] | 7.54
23 | C=CC(=O)N1CC2(CC(n3nc(N4CCN(C5COC5)C[C@]4(C)CC)c(-c4c(Cl)c(C)cc5[nH]ncc45)c3C)C2)C1 (single isomer, unassigned) [Example 133a] | 5.80
